The subject of data set [1] is Plasma. In words: Drug level in plasma of Sprague-Dawley rat treated with [14C]casopitant mesylate at 60 mg/kg/day, po administered as repeat dose measured after 24 hrs on day 20 by HPLC-MS/MS method relative to [14C]casopitant mesylate radioactivity. The data set is classed as ADME, organism-based. Also on record: dosed compound name [14C]Casopitant, route oral. To be noted: in vivo.

Data set [2] concerns Plasma. Nature of the data set: Drug level in plasma of beagle dog treated with [14C]casopitant mesylate at 40 mg/kg/day, po administered as repeat dose measured after 24 hrs on day 14 by HPLC-MS/MS method relative to [14C]casopitant mesylate radioactivity. On the set-up: dosed compound name [14C]Casopitant, route oral. To be noted: in vivo. The data set is classed as ADME, organism-based, Canis lupus familiaris.

Data set [3] is described as follows: Drug level in myocardium of beagle dog treated with [14C]casopitant mesylate at 40 mg/kg/day, po administered as repeat dose measured after 24 hrs on day 14 by HPLC-MS/MS method relative to [14C]casopitant mesylate radioactivity. The data set is classed as ADME, organism-based, Canis lupus familiaris. On the set-up: dosed compound name [14C]Casopitant, route oral. To be noted: in vivo.

Data set [4] in a line: Drug level in skeletal muscle of beagle dog treated with [14C]casopitant mesylate at 40 mg/kg/day, po administered as repeat dose measured after 24 hrs on day 14 by HPLC-MS/MS method relative to [14C]casopitant mesylate radioactivity. Also on record: dosed compound name [14C]Casopitant, route oral. To be noted: in vivo. Type of data set: ADME, organism-based, Canis lupus familiaris, Muscle tissue.

Data set [5] can be described thus: Drug level in kidney of beagle dog treated with [14C]casopitant mesylate at 40 mg/kg/day, po administered as repeat dose measured after 24 hrs on day 14 by HPLC-MS/MS method relative to [14C]casopitant mesylate radioactivity. The data set is classed as ADME, organism-based, Canis lupus familiaris. Also on record: dosed compound name [14C]Casopitant, route oral. Particulars: in vivo.

Data set [6] is described as follows: Drug level in lung of beagle dog treated with [14C]casopitant mesylate at 40 mg/kg/day, po administered as repeat dose measured after 24 hrs on day 14 by HPLC-MS/MS method relative to [14C]casopitant mesylate radioactivity. Type of data set: ADME, organism-based, Canis lupus familiaris. To be noted: in vivo. Also on record: dosed compound name [14C]Casopitant, route oral.

In data set [7] the test system is Canis familiaris. Nature of the data set: AUC (0 to t) in beagle dog treated with [14C]casopitant mesylate at 40 mg/kg/day, po administered as repeat dose measured after 26 weeks by HPLC-MS/MS method. Type of data set: ADME, organism-based, Canis lupus familiaris, Plasma. Also on record: dosed compound name [14C]Casopitant, route oral. Particulars: in vivo, 4368 h.

For data set [8], the system named is Canis familiaris. Nature of the data set: Cmax in beagle dog treated with [14C]casopitant mesylate at 40 mg/kg/day, po administered as repeat dose measured after 26 weeks by HPLC-MS/MS method. The data set is classed as ADME, organism-based, Canis lupus familiaris. Also on record: dose 40 mg/kg/day, dosed compound name [14C]Casopitant, route oral. To be noted: in vivo, 4368 h.

Data set [9] relates to Canis familiaris. Nature of the data set: Tmax in beagle dog treated with [14C]casopitant mesylate at 40 mg/kg/day, po administered as repeat dose measured after 26 weeks by HPLC-MS/MS method. The data set is classed as ADME, organism-based, Canis lupus familiaris. On the set-up: dosed compound name [14C]Casopitant, route oral. To be noted: in vivo, 4368 h.
Data set [10] is described as follows: Drug level in myocardium of beagle dog treated with [14C]casopitant mesylate at 40 mg/kg/day, po administered as repeat dose measured after 6 weeks by HPLC-MS/MS method. Type of data set: ADME, organism-based, Canis lupus familiaris. On the set-up: dosed compound name [14C]Casopitant, route oral. To be noted: in vivo, 1008 h.
A short description of data set [11]: Drug level in myocardium of beagle dog treated with [14C]casopitant mesylate at 40 mg/kg/day, po administered as repeat dose measured after 20 weeks by HPLC-MS/MS method. On the set-up: dosed compound name [14C]Casopitant, route oral. Particulars: in vivo, 3360 h. Type of data set: ADME, organism-based, Canis lupus familiaris.
Data set [12] in a line: Drug level in myocardium of beagle dog treated with [14C]casopitant mesylate at 40 mg/kg/day, po administered as repeat dose measured after 13 weeks by HPLC-MS/MS method. The data set is classed as ADME, organism-based, Canis lupus familiaris. Also on record: dosed compound name [14C]Casopitant, route oral. Particulars: in vivo, 2184 h.
Data set [13] is described as follows: Drug level in myocardium of beagle dog treated with [14C]casopitant mesylate at 40 mg/kg/day, po administered as repeat dose measured after 26 weeks by HPLC-MS/MS method. Type of data set: ADME, organism-based, Canis lupus familiaris. Also on record: dosed compound name [14C]Casopitant, route oral. To be noted: in vivo, 4368 h.
A short description of data set [14]: Drug level in myocardium of beagle dog treated with [14C]casopitant mesylate at 40 mg/kg/day, po administered as repeat dose measured after 22 weeks post dosing withdrawal by HPLC-MS/MS method. The data set is classed as ADME, organism-based, Canis lupus familiaris. Particulars: in vivo, 3696 h. Also on record: dosed compound name [14C]Casopitant, route oral.

Data set [15] concerns Plasma. Nature of the data set: Drug level in beagle dog plasma treated with [14C]casopitant mesylate at 40 mg/kg/day, po administered as repeat dose measured during 24 hrs dosing interval on week 26 by HPLC-MS/MS method. To be noted: in vivo. Also on record: dosed compound name [14C]Casopitant, route oral. Type of data set: ADME, organism-based, Canis lupus familiaris.

Molecules are shown by their SMILES. Where only a bound is given, the exact number is not on record here.

One may read the Cmax as the highest concentration seen after dosing. Usually Tmax stands for the time at which the peak concentration occurs.

Turning to `CC(=O)N1CCN([C@H]2CCN(C(=O)N(C)[C@H](C)c3cc(C(F)(F)F)cc(C(F)(F)F)c3)[C@@H](c3ccc(F)cc3C)C2)CC1O` (stereo partly drawn), the Compound recovery in [1] turned out to be 0.3%; in data set [2] it was 4.8%; in [3], 2.1%; in [4], 4.2%; in data set [5], 2.9%; in data set [6], 1.9%. Also, the Compound recovery in data set [10] is on record as 2041 ng/g; in [11], 6554 ng/g; in data set [12], 4516 ng/g; in data set [13], 3686 ng/g. Also, in [7], the AUCt stood at 61603 ng·h/mL. Further, in [8], the highest concentration (Cmax) turned out to be 4357 ng/mL. In data set [9], the Tmax was 4 h. Moreover, the “Drug concentration in myocardium” value in [14] is less than 50 ng/g.

Consider `Cc1cc(F)ccc1[C@H]1C[C@@H](NCCN)CCN1C(=O)N(C)[C@H](C)c1cc(C(F)(F)F)cc(C(F)(F)F)c1`, for which the Compound recovery result in data set [1] was “Metabolite not detected”; in [2] (BLD = below limit of detection) it was “BLD”; in [3], 3.7%; in data set [4], 2.4%; in data set [5], 4.8%; in data set [6], 2.3%. In addition, the Compound recovery in data set [10] was 39180 ng/g; in data set [11], 85193 ng/g; in data set [12], 62780 ng/g; in [13], 114014 ng/g. Besides, in data set [7], the AUCt amounted to 1442 ng·h/mL. In addition, in data set [8], the maximum concentration (Cmax) worked out at 65.5 ng/mL. Further, the time to peak (Tmax) in data set [9] was found to be 24 h. For the same compound, in data set [14], the “Drug concentration in myocardium” value came to 31732 ng/g.

Consider `C[C@@H](NC(N)=O)c1cc(C(F)(F)F)cc(C(F)(F)F)c1`, for which the Compound recovery in data set [1] is on record as 4.6%; in [2] it was “Metabolite not detected”; in data set [3] it was “Metabolite not detected”; in data set [4], “Metabolite not detected”; in data set [5], “Metabolite not detected”; in data set [6], “Metabolite not detected”.

With `CC(=O)NCCN[C@H]1CCN(C(=O)N(C)[C@H](C)c2cc(C(F)(F)F)cc(C(F)(F)F)c2)[C@@H](c2ccc(F)cc2C)C1`, the AUCt in data set [7] was 3040 ng·h/mL. This compound also showed a Cmax in data set [8] of 189 ng/mL. Also, in [9], the Tmax was determined as 1 h. The Compound recovery entry in data set [15] is “metabolite_detected”; in [10] it was 2379 ng/g; in data set [11] it was 9399 ng/g; in data set [12], 5386 ng/g; in data set [13], 6644 ng/g. For the same compound, the “Drug concentration in myocardium” value in data set [14] is less than 50 ng/g.

Regarding `CC(=O)N1CCN([C@H]2CCN(C(=O)N(C)[C@H](C)c3cc(C(F)(F)F)cc(C(F)(F)F)c3)[C@@H](c3ccc(F)cc3C)C2)CC1=O`, the Compound recovery in [1] is recorded as 0.2%; in data set [2], 0.9%; in [3], 0.5%; in data set [4] it was 1.3%; in data set [5] it was 1.1%; in data set [6], 0.6%.

Take `CC(=O)N1CCN([C@H]2CCN(C(=O)N(C)[C@H](C)c3cc(C(F)(F)F)cc(C(F)(F)F)c3)[C@@H](c3ccc(F)cc3C)C2)CC1.CS(=O)(=O)O` [CASOPITANT MESYLATE]: the Compound recovery in data set [1] is given as 1.5%; in [2], 1.9%; in data set [3], 3.7%; in data set [4], 2.4%; in [5], 7%; in [6], 11.9%. Also, the Compound recovery in data set [10] came out at 467 ng/g; in data set [11], 2098 ng/g; in data set [12], 1991 ng/g; in data set [13], 889 ng/g. This compound came in with an AUCt in [7] of 53599 ng·h/mL. In addition, in data set [8], the maximum concentration (Cmax) was found to be 7167 ng/mL. Further, in [9], the time of peak concentration (Tmax) stood at 1 h. For the same compound, the “Drug concentration in myocardium” value in data set [14] was less than 50 ng/g.

Values taken from ChEMBL document CHEMBL3526147, “Tissue distribution and characterization of drug-related material in rats and dogs after repeated oral administration of casopitant” (Drug Metab Dispos, 2011).
